Data as given in patent US20130344501A1, “METHODS FOR PRODUCING THREE-DIMENSIONAL PHYSIOLOGICALLY RELEVANT IMMUNE TISSUE SYSTEMS UNDER LOW FLUID SHEAR CONDITIONS” (priority 2010, published 2013).

Legend:
A549 3-D = assay: Cell viability of three-dimensional A549 monotypic cultures after exposure to 3-oxo-C12 HSL, flow cytometry; assay type: cell-based, human; conditions: for Percentage viability, A549 3-D: A549 exposed alone, 20 hour exposure
Method: The three-dimensional A549 monotypic cultures were made as previously described (Carterson et al., 2005).
(§1) Assessment of live-, apoptotic-, and necrotic cell populations was performed with the annexin V-propidium iodide (PI) kit for flow cytometry analysis (ImmunoSource) according to the manufacturer's instructions.
(§2) Stained cell suspensions were analyzed with an EPICS XL flow cytometer (Beckman-Coulter) or a Cytomics FC 500 system (Beckman-Coulter), equipped with an argon laser and filters for adequate excitation of the chosen fluorophores. Forward scatter, side scatter, FITC-, PI and PE-Cy5 emissions were measured and a total of 10,000 cells were recorded for each sample. The respective cell populations were delimited to eliminate background signals originating from cell debris. To assess background fluorescent signals from the tested cell populations, non-stained samples were included.
(§3) After 72 hours of co-cultivation, aggregates containing 2×10^6 cells were seeded into 6-well plates containing fresh medium (5 ml total volume). Subsequently, aggregates were spiked with 5, 10 or 100 μM 3-oxo-C12 HSL (Sigma-Aldrich) (starting from a 20 mM stock solution in DMSO, stored at −20° C.). Equal volumes of DMSO, containing the respective amounts of 3-oxo-C12 HSL, were added to each well (25 μl) and a solvent control (25 μl DMSO) was included in each experiment. Six-well plates were placed at 37° C. in a 5% CO2 environment and incubated for 20 hours. For exposure assays of monocytes to 3-oxo-C12 HSL, 2×10^6 U937 cells/well were transferred in 6-well plates. To assess the influence of 3-oxo-C12 HSL on monocytes cultured on microcarrier beads, collagen I-coated beads were added to the cells at the same concentration as for seeding three-dimensional cultures (1 bead per 2500 cells). Subsequently, monocyte cultures (with or without microcarrier beads) were spiked with 3-oxo-C12 HSL (see above). A solvent control was included. After 20 hours incubation, cells were processed for flow cytometry analysis. Cell viability was assayed with trypan blue (0.4%) (Sigma) and/or with the annexin V-PI kit (ImmunoSource) (see above). […] FIG. 9B are examples of the three-dimensional A549-U937 co-culture model exposed to 100 μM 3-oxo-C12 HSL and to the solvent control DMSO. The presented cell population is gated for CD45 positive cells and thus only includes monocytes/macrophages. For FIGS. 9A-B, “I” represents the percentage of dead cells, while “H” is the viable cell population. Consequently, cell viability was further assessed based on the shift in forward scatter signal (see Table 1).

[1] = system: ICAM-1 signal of the macrophage-like cells (U937, CD45 positive); assay: ICAM-1 signal of macrophage-like cells in the three-dimensional A549-U937 co-culture exposed to 3-oxo-C12 HSL, flow cytometry; assay type: cell-based, human; conditions: 100 μM; 20 hours; p<0.01; mean ± SD, N=3
Text: (§4) Mouse anti-human CD45 (Invitrogen) and ICAM-1 (Invitrogen) conjugated with phycoerythrin (PE)-Cy5 and FITC respectively were used for flow cytometry staining. Sample preparation and fluorescent staining of cells. Cells were rinsed 2 times with pre-warmed HBSS (Invitrogen), detached from microcarrier beads/culture flasks with 0.25% trypsin-EDTA (Invitrogen) and counted using a hemocytometer. For inclusion of cells detached from the microcarrier beads (three-dimensional A549 and three-dimensional A549-U937 co-cultures) in the frame of QS exposure studies (see below), whole cultures (both aggregates and bulk liquid) were centrifuged at 1200 rpm for 6 min for each washing step. […]
(§5) Stained cell suspensions were analyzed with an EPICS XL flow cytometer (Beckman-Coulter) or a Cytomics FC 500 system (Beckman-Coulter), equipped with an argon laser and filters for adequate excitation of the chosen fluorophores. Forward scatter, side scatter, FITC-, PI and PE-Cy5 emissions were measured and a total of 10,000 cells were recorded for each sample. […]
(§6) After 72 hours of co-cultivation, aggregates containing 2×10^6 cells were seeded into 6-well plates containing fresh medium (5 ml total volume). […] Consequently, cell viability was further assessed based on the shift in forward scatter signal (see Table 1).

U937 cells = conditions: this and other studies (Tateda 2003, Kravchenko 2006, Li 2009); cited from earlier work
[2] = system: U937 cells in A549-U937 3-D co-culture; assay: Viability of U937 macrophage-like cells (CD45 positive) in the three-dimensional A549-U937 co-culture after exposure to 3-oxo-C12 HSL; assay type: cell-based, human; conditions: for Percentage viability, A549-U937 3-D, U937: U937 co-cultured three-dimensionally with A549, 20 hour exposure
Method: A549 three-dimensional aggregates were grown as described above and after 9 days of three-dimensional A549 cultivation, undifferentiated U937 monocytes were added to the HARV as follows. three-dimensional A549 cells were counted by trypsinization of an aggregate sample and U937 cells (grown in T75 flasks) were added in a 1:1 ratio to the three-dimensional A549 culture. A549 and U937 cells were co-cultured in the HARV at 20 rpm for 72 h. After addition of the monocytes, culture medium was changed after 48 hours of co-cultivation where after medium was replenished every 24 hours.
as §1, §2
three-dimensional co-cultures of A549 and U937 cells (as described above) were stained for CD45, since this marker specifically stains leukocytes.
as §3

[3] = system: ICAM-1 expression of A549 cells (derived from the three-dimensional A549-U937 co-culture); assay: ICAM-1 expression of A549 cells from the three-dimensional A549-U937 co-culture exposed to 3-oxo-C12 HSL, flow cytometry; assay type: cell-based, human
Text: as §4, §5, §6

**Q.** With `CCCCCCCCCC(=O)CC(=O)N[C@H]1CCOC1=O` [3-oxo-C12 HSL, N-(3-oxododecanoyl)-Lhomoserine lactone] as the molecule, how does the “cell death in A549 three-dimensional monotypic cultures” value (A549 3-D; 5, 10 and 100 μM) read?
**A.** Its value is “did not induce cell death”.

**Q.** And the “Percentage viability, A549 3-D” value (A549 3-D; 5 μM)?
**A.** Its value is 97.7 ± 0.00%.

**Q.** And the “Percentage viability, A549 3-D” value (A549 3-D; 10 μM)?
**A.** The value was 97.8 ± 0.00%.

**Q.** What about the “Percentage viability, A549 3-D” value (A549 3-D; 100 μM) of the same molecule?
**A.** Its value is 94.9 ± 0.02%.

**Q.** And the “increase in the ICAM-1 signal compared to the control samples” value [1]?
**A.** The value was 2.93±0.79 fold.

**Q.** What about the “concentrations at which apoptosis is induced in pure cultures of monocytes and macrophages” value (U937 cells) of the same molecule?
**A.** Its value is “above 25 μM”.

**Q.** What about the “macrophage cell death with inclusion of all detached cells” value ([2]; 100 μM versus DMSO control) of the same molecule?
**A.** Its value is “no difference in macrophage cell death”.

**Q.** What about the “decrease of the ratio of U937 cells to the total cell population in three-dimensional A549-U937 aggregates” value ([2]; 100 μM, compared to the non-exposed control) of the same molecule?
**A.** The value was 37±5%.

**Q.** And the “viability of macrophage-like U937 cells co-cultured with A549 in three-dimensional” value ([2]; 100 μM, up to 20 hours)?
**A.** The value was “minimally affected in viability”.

**Q.** What about the “death in the attached macrophage-like cell population of the co-culture” value ([2]; 5 and 10 μM, compared to the control) of the same molecule?
**A.** The value was “did not induce increased death”.

**Q.** And the “Percentage viability, A549-U937 3-D, U937” value (“Percentage viability … U937” for short) ([2]; 5 μM)?
**A.** The value was 97.1 ± 0.01%.

**Q.** And the “Percentage viability … U937” value ([2]; 10 μM)?
**A.** Its value is 99.3 ± 0.01%.

**Q.** What about the “Percentage viability … U937” value ([2]; 100 μM) of the same molecule?
**A.** The value was 93.8 ± 0.03%.

**Q.** And the “cell death in three-dimensional co-cultured monocytes/macrophages with alveolar epithelium” value ([2]; concentrations up to 100 μM, either of the cell populations)?
**A.** The value was “did not induce cell death”.

**Q.** And the “ICAM-1 expression increase compared to the solvent control” value ([3]; 100 μM, 20 hours, p<0.01, mean ± SD, N=3)?
**A.** The value was 1.66±0.11 fold.

**Q.** What about the “ICAM-1 expression” value ([3]; lower concentrations of the QS molecule) of the same molecule?
**A.** Its value is “did not affect ICAM-1 expression”.
